Data as given in patent US6624142B2, “Trimethyl lock based tetrapartate prodrugs” (Enzon, Inc., priority 1997, dated 2003).

Test system: s.c. Human Mammary Tumor (MX-1)
Experiment: Efficacy against s.c. MX-1 human mammary tumor in nude mice
Type: in vivo
Conditions: 30 mg/kg q7d × 3, iv
Description: Following at least one week of acclimation, tumors were established by injecting 1×10^6 (100 μl) harvested MX-1 mammary tumor cells in a single subcutaneous site, on the left axillary flank region of nude mice. The tumor injection site was observed twice weekly and measured once palpable. The tumor volume for each mouse was determined by measuring two dimensions with calipers and calculated using the formula: tumor volume ((length×width^2)/2). When tumors reached the average volume of approximately 65 mm^3, the mice were divided into their experimental groups, which consists of vehicles (20 m M Sodium PO4 in 0.6% NaCl) controls, Leu-Doxorubicin, compound 3 of Example 1a, compound 5 of Example 2a. The mice were sorted to evenly distribute tumor size, grouped into 6 mice/cage, and ear punched for permanent identification. Drugs were dosed intravenously via the tail vein once per week for three weeks (Qd7×3). Mouse weight and tumor sizes were measured at the beginning of study and twice weekly through week 5.
The overall growth of tumors was calculated as the mean tumor volume at one week following the end of the treatment. A percent treatment over control (T/C) value was also calculated when the control group's median tumor size reached approximately 800-1100 mm^3 and again at one week following treatment. The T/C value in percent is a non-quantitative indication of anti-tumor effectiveness.

SMILES: COc1cccc2c1C(=O)c1c(O)c3c(c(O)c1C2=O)C[C@@](O)(C(=O)CO)C[C@@H]3O[C@H]1C[C@H](NC(=O)[C@@H](N)CC(C)C)[C@H](O)[C@H](C)O1 [Leu-Dox, Leucine-Doxorubicin, reference compound]
- Tumor Vol. Mean ± SEM (Day 25-28) (Day 25-28, mean baseline tumor volume 65 mm^3): 860 ± 163 mm^3
- T/C (%) 1000 mm^3 (median tumor volume, treatment vs control, when control median reached approximately 1000 mm^3): 56.5%
- % Change Mean ± SEM (Day 25-28) (tumor volume change, Day 25-28): 1373 ± 487%
